Legend:
[1] = tested on: immune checkpoint (IC) and Wnt target gene loci; experiment: ATAC-seq chromatin accessibility in LSCs and blast cells; type: in vivo, mouse; details: [Low]DXR
Source text: Inhibitory IC gene loci are highlighted (blue dots).
Cells were sorted from BM pooled from 20 leukemia mice treated with [Low]DXR and 8 leukemia mice treated with vehicle control at 15-30 k/replicate.
FIG. 4M is metagene analysis of LSCs showing chromatin accessibility near the transcriptional start site (TSS) in immune-checkpoint gene loci (listed) compared with all loci showing significant changes. Gene synonyms are listed here in parentheses Hvem (Tnfrsf14), Gal-9 (Lgals9), Ox401 (Tnfsf4), Tnfsf7 (Cd70), B7-H2 (Icosl), B7-H3 (Cd276), B7-H4 (Vtcn1), Pd1 (Pdcd1), Tnfrsf7 (Cd27), Tim3 (Havcr2), Ox40 (Tnfrsf4).
Cells were sorted from BM pooled from 20 leukemia mice treated with [Low]DXR and 8 leukemia mice treated with vehicle control. Experiment was repeated 1 time with similar results.
ATAC-seq was performed in LSCs and blast cells following the protocol described in Buenrostro et al., ATAC-seq: A Method for Assaying Chromatin Accessibility Genome-Wide. Curr Protoc Mol Biol. 2015 Jan. 5,109:21.29.1-9, the entirety of which is incorporated herein by reference. Cells were sorted from BM pooled from 20 leukemia mice treated with [Low]DXR and 8 leukemia mice treated with vehicle control at 15-30 k/replicate.
Collected cells were subject to transposition reaction and purification. In brief, 30,000 FACS-sorted blast cells were washed using 50 μl cold 1×PBS and centrifuged at 500 g for 5 min in a pre-chilled (4° C.) fixed-angle centrifuge. Cells were lysed using cold lysis buffer (10 mM Tris-HCl, pH 7.4, 10 mM NaCl, 3 mM MgCl2 and 0.1% IGEPAL CA-630). Following the lysis, the pellet was resuspended in the transposase reaction mix. The transposition reaction mix contains 25 μl TD (2× reaction buffer), 2.5 μl TDE1 (Nextera Tn5 Transposase) and 22.5 μl Nuclease Free H2O. Resuspended nuclei in the transposition reaction mix. Incubated the transposition reaction at 37° C. for 30 min. Immediately following transposition, purification was performed by using a Qiagen MinElute PCR Purification Kit. Eluted transposed DNA in 10 μl Elution Buffer (10 mM Tris buffer, pH 8). Transposed DNA fragments were amplified by PCR. The PCR mixture contains 10 μl transposed DNA, 10 μl Nuclease Free H2O, 2.5 μl 25 μM Custom Nextera PCR Primer 1, 2.5 μl 25 μM Custom Nextera PCR Primer 2 (Contains Barcode) and 25 μl NEBNext High-Fidelity 2×PCR Master Mix. The thermal cycle is as follows: 1 cycle of 72° C. for 5 min, 98° C. for 30 sec, 5 cycles of 98° C. for 10 sec, 63° C. for 30 sec, 72° C. for 1 min. To reduce GC and size bias in PCR, the appropriate number of PCR cycles is determined using qPCR. To run a qPCR side reaction, combine the following in qPCR compatible consumables: 5 μl of previously PCR amplified DNA, 4.41 μl Nuclease Free H2O, 0.25 μl 25 μM Customized Nextera PCR Primer 1, 0.25 μl 25 μM Customized Nextera PCR Primer 2, 0.09 μl 100×SYBR Green I, 5 μl NEBNext High-Fidelity 2×PCR Master Mix. Using a qPCR instrument, cycle as follows: 1 cycle of 98° C. for 30 sec, 20 cycles of 98° C. for 10 sec, 63° C. for 30 sec, 72° C. for 1 min. To calculate the additional number of cycles needed, plot linear Rn versus cycle and determine the cycle number that corresponds to […] fluorescent intensity. Run the remaining 45 μl PCR reaction to the cycle number determined by qPCR. Cycle as follows: 1 cycle of 98° C. for 30 sec, N cycles (determined using qPCR) of 98° C. for 10 sec, 63° C. for 30 sec, 72° C. for 1 min.

[2] = tested on: LSCs and HSPCs transcriptome; experiment: RNA-seq of populations sorted from treated leukemic mice; type: in vivo, mouse
Procedure: HSPCs, LSCs, and blast cells were sorted by FACS at […] post-treatment of leukemic mice; representative sorting gates are shown. Note distinct LSC population (compare to isotype) in vehicle versus low-dose DXR+chemotherapy treatment when LSCs show very low frequency. Other plots are from vehicle control. To obtain sufficient cells from the clinical DXR sample, the 5×4 […] DXR daily dosing schedule was used.
Data from two biological replicates of each, differing by <0.3 standard deviations, are shown.
Cohorts of leukemic mice were treated with vehicle, chemotherapy, [Low]DXR, clinical-dose DXR or chemotherapy+[Low]DXR as in FIG. 8. At 10 days post-treatment (day 1=start of treatment), blast cells, LSCs, and HSPCs were sorted using stringent gates (see FIG. 4A) for these populations. For each population, two biological replicates were made with 1-3 technical replicates each. Each biological replicate was a pool of sorted cells from 4-5 male and 4-5 female mice. Technical replicates were samples of sorted cells from each biological replicate. 1,000 cells per sample were sorted into 96-well plates with 7 μl lysis buffer containing RNase inhibitor (2 U/μl) from BM. First-strand cDNA synthesis and cDNA libraries were constructed using the SMARTer ultra low input RNA kit for sequencing—v3 (Clontech) following the manufacturer's instructions. cDNA quality was determined by Agilent high sensitivity DNA kit on Agilent 2100 BioAnalyzer (Agilent Technologies). Libraries were sequenced at 50 bp on the Illumina HiSeq 2500. Reads were aligned to UCSC mm10 with Tophat 2.1.1 (Kim et al. 2013), using gene models from Ensembl 80. Read counts per gene were obtained with HTSeq-count 0.6.0 (Anders et al. 2015). Analysis was done in R with the EdgeR package (Robinson et al. 2010) using default methods. […] Data can be accessed at https://www.ncbi.nlm.nih.qov/geo/query/acc.cqi?acc=GSE105049.

[3] = tested on: human T-ALL blasts and pS^552-β-cat^+ LSCs; experiment: Patient-derived xenografts of MRD+ pediatric T-ALL treated with [Low]DXR; type: in vivo; details: [Low]DXR 5 days, two weeks after transplantation; Pt 057, Pt 062
Source text: Shown is T-ALL blasts (CD45^+ c-Kit^−ve CD3^+) in Pt 057. Graphs indicate frequency of human CD45^+ cells (%)+SD.
Graphs indicate frequency of human CD45^+ cells (%)±SD.

## COc1cccc2c1C(=O)c1c(O)c3c(c(O)c1C2=O)C[C@@](O)(C(=O)CO)C[C@@H]3O[C@H]1C[C@H](N)[C@H](O)[C@H](C)O1 [DXR, doxorubicin]
[1]; LSCs
  IC loci with increased accessibility: 3 loci
  IC loci with reduced accessibility: 13 loci
[1]; blast cells
  IC loci with increased accessibility: 10
  IC loci with reduced accessibility: 4
[1]; not in blast cells
  accessibility in the promoter regions of Wnt target genes in LSCs: reduced
[2]; [Low]DXR
  Hallmark MYC targets in LSCs: reduced
  most highly enriched terms in LSCs compared to control or chemotherapy: upregulation of immune-related terms
[2]; clinical DXR
  expression of resistance pathways, LSCs versus HSPCs: increased expression of oncogenic signaling and other resistance pathways
[3]
  engraftment of bulk blast cells: not significantly changed
  pS552-β-cat+ LSCs: significantly reduced
